Assay: binding preference from monorhamnolipid-metal conditional stability constants for 26 metals
Conditions: metals of environmental concern (e.g., Cd, Pd, Hg) versus common soil and water cations
Description: They are considered “green” molecules due to their natural products from bacteria (e.g., Pseudomonas aeruginosa), biodegradability, and low toxicity. The present inventors have experimentally determined the monorhamnolipid-metal conditional stability constants ([…]) for 26 metals of interest.

Substance: monorhamnolipid
- binding preference for metals of environmental concern over common soil and water cations: 6-8 orders of magnitude
